Active and inactive are the calls of the source. No cut-off for these calls is given here.
What was measured:
Peritoneal macrophage [1] = experiment: Cytotoxicity against BALB/c mouse peritoneal macrophages assessed as reduction in cell viability at 20 ug incubated for 48 hrs by MTT assay; type: toxicity, cell-based; conditions: dose 20 µg
[2] = molecular target: Nucleotide-binding oligomerization domain-containing protein 2 (Homo sapiens) (UniProt Q9HC29); experiment: Agonist activity at NOD2 in HEK-Blue hNOD2 cells assessed as increase in SEAP activity at 20 ug incubated for 24 hrs by Quanti-blue assay; type: cell-based; conditions: filed as agonist, dose 20.0 µg
Sequence of Nucleotide-binding oligomerization domain-containing protein 2 (Homo sapiens) (Q9HC29 whole entry, the tested form may be a part): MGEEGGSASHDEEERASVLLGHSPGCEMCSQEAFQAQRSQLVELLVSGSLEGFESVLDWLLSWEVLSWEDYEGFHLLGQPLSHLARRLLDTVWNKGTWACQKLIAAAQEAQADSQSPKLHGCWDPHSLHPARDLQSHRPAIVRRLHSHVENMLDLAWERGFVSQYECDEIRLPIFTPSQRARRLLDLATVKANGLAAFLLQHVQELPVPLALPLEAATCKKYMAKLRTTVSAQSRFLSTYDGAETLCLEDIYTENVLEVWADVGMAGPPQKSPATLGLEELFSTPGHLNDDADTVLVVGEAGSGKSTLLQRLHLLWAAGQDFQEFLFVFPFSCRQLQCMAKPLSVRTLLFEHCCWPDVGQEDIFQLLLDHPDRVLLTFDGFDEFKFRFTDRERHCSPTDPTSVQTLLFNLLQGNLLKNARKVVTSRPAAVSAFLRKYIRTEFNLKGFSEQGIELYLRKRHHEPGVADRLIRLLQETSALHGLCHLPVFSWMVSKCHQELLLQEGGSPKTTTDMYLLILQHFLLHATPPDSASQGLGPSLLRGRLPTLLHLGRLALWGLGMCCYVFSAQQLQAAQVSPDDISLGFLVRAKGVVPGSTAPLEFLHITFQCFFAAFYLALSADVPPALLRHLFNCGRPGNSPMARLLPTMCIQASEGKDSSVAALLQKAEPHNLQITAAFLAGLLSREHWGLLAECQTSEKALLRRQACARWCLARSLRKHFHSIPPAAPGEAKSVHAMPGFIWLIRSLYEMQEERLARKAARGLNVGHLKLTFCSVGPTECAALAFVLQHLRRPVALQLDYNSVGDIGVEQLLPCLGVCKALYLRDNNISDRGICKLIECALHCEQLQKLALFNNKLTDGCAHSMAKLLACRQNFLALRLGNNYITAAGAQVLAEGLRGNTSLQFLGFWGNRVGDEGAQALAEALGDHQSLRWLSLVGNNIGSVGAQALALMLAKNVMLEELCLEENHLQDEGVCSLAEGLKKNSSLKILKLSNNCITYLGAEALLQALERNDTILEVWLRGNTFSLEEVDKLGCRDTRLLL

Peritoneal macrophage [3] = experiment: Immunostimulatory activity in BALB/c mouse peritoneal macrophages assessed as increase in TNF-aplha production at 20 ug incubated for 48 hrs by sandwich ELISA method; type: functional, cell-based; conditions: dose 20.0 µg
[4] = Induction of dengue virus antigen-induced immunogenicity in BALB/c mouse assessed as fold change in IgG production treated at 10 ug and booster dosed on 14th day measured after 28 days by ELISA method; type: functional; conditions: dose 10 µg; time 28 day
[5] = Induction of dengue virus antigen-induced immunogenicity in BALB/c mouse assessed as fold change in IgG production treated at 20 ug and booster dosed on 14th day measured after 28 days by ELISA method; type: functional; conditions: dose 20 µg; time 28 day
Mus musculus [6] = experiment: Induction of dengue virus antigen-induced immunogenicity in BALB/c mouse assessed as […] associated IgG2a production in sera treated at 10 to 30 ug and booster dosed on 14th day measured after 28 days by ELISA method; type: functional, organism-based; conditions: dose 10-30 µg, time 28.0 day
Splenocyte [7] = experiment: Induction of dengue virus antigen-induced immunogenicity in BALB/c mouse assessed as increase in CD8+ production in splenocyte treated at 20 ug and booster dosed on 14th day measured after 28 days by ELISA method; type: functional, organism-based; conditions: dose 20.0 µg, time 28.0 day
Splenocyte [8] = experiment: Induction of dengue virus antigen-induced immunogenicity in BALB/c mouse assessed as increase in CD4+ production in Splenocyte treated at 20 ug and booster dosed on 14th day measured after 28 days by ELISA method; type: functional, organism-based; conditions: dose 20.0 µg, time 28.0 day
Splenocyte [9] = experiment: Induction of dengue virus antigen-induced immunogenicity in BALB/c mouse assessed as increase in CD4+ production in Splenocyte treated at 1 to 30 ug and booster dosed on 14th day measured after 28 days by ELISA method; type: functional, organism-based; conditions: dose 1-30 µg, time 28.0 day
Splenocyte [10] = experiment: Induction of Con A-stimulated mouse splenocyte proliferation assessed as increase in T cell population incubated for 48 hrs by MTT assay; type: functional, cell-based; conditions: dose 10-20 µg, DDE = dose-dependent effect
Splenocyte [11] = experiment: Induction of LPS-stimulated mouse splenocyte proliferation assessed as increase in B cell population incubated for 48 hrs by MTT assay; type: functional, cell-based; conditions: dose 10-20 µg, DDE = dose-dependent effect
Splenocyte [12] = experiment: Induction of dengue virus antigen-induced immunogenicity in BALB/c mouse assessed as increase in CD8+ production in Splenocyte treated at 1 to 30 ug and booster dosed on 14 th day measured after 28 days by ELISA method; type: functional, organism-based; conditions: dose 1-30 µg, time 28.0 day
Mus musculus [13] = experiment: Induction of dengue virus antigen-induced immunogenicity in BALB/c mouse assessed as decrease in IFNgamma level booster dosed on 14th day and measured on day 28 after 48 hrs restimulation with antigen by ELISA method; type: functional, organism-based; conditions: dose 10-30 µM, time 28.0 day, DDE = dose-dependent effect
Mus musculus [14] = experiment: Induction of dengue virus antigen-induced immunogenicity in BALB/c mouse assessed as increase in IL-2 level booster dosed on 14th day and measured on day 28 after 48 hrs restimulation with antigen by ELISA method; type: functional, organism-based; conditions: dose 10-30 µg, time 28.0 day, DDE = dose-dependent effect
Mus musculus [15] = experiment: Induction of dengue virus antigen-induced immunogenicity in BALB/c mouse assessed as increase in IL-4 level booster dosed on 14th day and measured on day 28 after 48 hrs restimulation with antigen by ELISA method; type: functional, organism-based; conditions: dose 10-30 µg, time 28.0 day, DDE = dose-dependent effect
Mus musculus [16] = experiment: Induction of dengue virus antigen-induced immunogenicity in BALB/c mouse assessed as increase in IL-1beta level treated at 10 to 20 ug and booster dosed on 14th day and measured on day 28 after 48 hrs restimulation with antigen by ELISA method; type: functional, organism-based; conditions: dose 10-20 µg, time 28.0 day

SMILES	Activity (Peritoneal macrophage [1])	Activity [2]	Activity (Peritoneal macrophage [3])	fold change (FC) [4]	fold change (FC) [5]	further results
CC(=O)N[C@H]1C(O)O[C@H](CO)[C@@H](O)[C@@H]1O[C@H](C)C(=O)N[C@@H](C)C(=O)N[C@H](CCC(=O)O)C(N)=O (stereo partly drawn) [MURAMYL DIPEPTIDE]	Non-Toxic	Active	Active	5	5	–
C[C@H](NC(=O)[C@@H](C)O[C@@H]1[C@@H](N=[N+]=[N-])[C@@H](OCc2ccccc2)O[C@@H]2CO[C@@H](c3ccccc3)O[C@@H]12)C(=O)N[C@H](CCC(=O)OCc1ccccc1)C(N)=O	Non-Toxic	Active	Active	–	–	–
CCCCCCCCOC(=O)CC[C@@H](NC(=O)[C@H](C)NC(=O)[C@@H](C)O[C@H]1[C@H](O)[C@@H](CO)O[C@H](OCc2ccccc2)[C@@H]1N=[N+]=[N-])C(N)=O	Non-Toxic	Active	Active	–	–	–
C[C@H](NC(=O)[C@@H](C)O[C@H]1[C@H](O)[C@@H](CO)O[C@H](OCc2ccccc2)[C@@H]1N=[N+]=[N-])C(=O)N[C@H](CCC(=O)O)C(N)=O	Non-Toxic	Active	Active	–	–	–
C[C@H](NC(=O)[C@@H](C)O[C@H]1[C@H](O)[C@@H](CO)O[C@H](OCc2ccccc2)[C@@H]1N=[N+]=[N-])C(=O)N[C@H](CCC(=O)OCc1ccccc1)C(N)=O	Non-Toxic	Active	Active	8	10	Activity (Mus musculus [6]): Active; Activity (Splenocyte [7]): Active; Activity (Splenocyte [8]): Active; Activity (Splenocyte [9]): Active; Activity (Splenocyte [10]): Dde; Activity (Splenocyte [11]): Dde; Activity (Splenocyte [12]): Active; Activity (Mus musculus [13]): Dde; Activity (Mus musculus [14]): Dde; Activity (Mus musculus [15]): Dde; Activity (Mus musculus [16]): Active
CCCCCCCCCCCCCCOC(=O)CC[C@@H](NC(=O)[C@H](C)NC(=O)[C@@H](C)O[C@H]1[C@H](O)[C@@H](CO)O[C@H](OCc2ccccc2)[C@@H]1N=[N+]=[N-])C(N)=O	Non-Toxic	Active	Active	–	–	–
